In publication PMC3551916, “The Effects of Methionine Acquisition and Synthesis on Streptococcus Pneumoniae Growth and Virulence” (PLoS ONE, 2013):

Columns and labels:
MetQ [1] = target: T1, MetQ (Streptococcus pneumoniae, UniProt A0A0H2ZPC6); experiment: tryptophan fluorescence spectroscopy titration; assay type: binding
T1 construct: gene SPD_0151; His6-MetQ (Sp_0149) without the predicted N-terminal signal peptide, ligand free, cloned from strain D39

MetQ [2] = target: T1, MetQ; experiment: isothermal titration calorimetry (also tryptophan fluorescence, KD […]); assay type: binding

T1 sequence (A0A0H2ZPC6 entry or part of it): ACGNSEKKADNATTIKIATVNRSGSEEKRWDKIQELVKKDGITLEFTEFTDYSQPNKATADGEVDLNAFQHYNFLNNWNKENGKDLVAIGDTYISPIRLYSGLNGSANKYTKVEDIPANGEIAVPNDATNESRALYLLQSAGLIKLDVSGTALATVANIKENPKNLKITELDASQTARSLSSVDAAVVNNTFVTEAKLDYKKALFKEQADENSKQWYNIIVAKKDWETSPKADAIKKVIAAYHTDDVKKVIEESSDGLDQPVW

SMILES: CSCC[C@@H](N)C(=O)O [D-methionine]
- Kd (MetQ [1]): 27.4 ± 0.96 µM

SMILES: CSCCC(C)(N)C(=O)O (racemic) [α-methyl-DL-methionine]
- Kd (MetQ [1]): 30.1 ± 0.86 µM

SMILES: CSCC[C@H](N)C(=O)O [L-methionine]
- Kd (MetQ [2]): 0.0266 ± 0.00128 µM

SMILES: NC(CCS)C(=O)O (racemic) [DL-homocysteine]
- Kd (MetQ [1]): 7 ± 0.26 µM
